Data published in PubChem BioAssay AID1963829 (Molecular Pharmacology Branch, DTP, NCI, 2024).
pIC50: −log10 of the molar value.

Test system: 935938-334-R-J1-PDC complex spheroid viability
Assay: Anticancer human tumor 935938-334-R-J1-PDC patient-derived small intestine adenocarcinoma cell line growth inhibition [POLQ]
Settings: for pIC50: curve of first compound; for viability, T/C: stronger effect = lower value
How it was run: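 Three-cell-type spheroids modelling solid tumor plus stroma served as the readout system; POL inhibitors were tested individually and in combination, concentration ranges set by clinical Cmax where known.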

[1] = second compound 0.0316 µM, first compound 0.0316 µM
[2] = second compound 0.0316 µM, first compound 0.1 µM
[3] = second compound 0.0316 µM, first compound 0.316 µM
[4] = second compound 0.0316 µM, first compound 1 µM
[5] = second compound 0.0316 µM, first compound 3.16 µM
[6] = second compound 0.0316 µM, first compound 10 µM
[7] = second compound 0.1 µM, first compound 0.0316 µM
[8] = second compound 0.1 µM, first compound 0.1 µM
[9] = second compound 0.1 µM, first compound 0.316 µM
[10] = second compound 0.1 µM, first compound 1 µM
[11] = second compound 0.1 µM, first compound 3.16 µM
[12] = second compound 0.1 µM, first compound 10 µM
[13] = second compound 0.316 µM, first compound 0.0316 µM
[14] = second compound 0.316 µM, first compound 0.1 µM
[15] = second compound 0.316 µM, first compound 0.316 µM
[16] = second compound 0.316 µM, first compound 1 µM
[17] = second compound 0.316 µM, first compound 3.16 µM
[18] = second compound 0.316 µM, first compound 10 µM
[19] = second compound 1 µM, first compound 0.0316 µM
[20] = second compound 1 µM, first compound 0.1 µM
[21] = second compound 1 µM, first compound 0.316 µM
[22] = second compound 1 µM, first compound 1 µM
[23] = second compound 1 µM, first compound 3.16 µM
[24] = second compound 1 µM, first compound 10 µM
[25] = second compound 3.16 µM, first compound 0.0316 µM
[26] = second compound 3.16 µM, first compound 0.1 µM
[27] = second compound 3.16 µM, first compound 0.316 µM
[28] = second compound 3.16 µM, first compound 1 µM
[29] = second compound 3.16 µM, first compound 3.16 µM
[30] = second compound 3.16 µM, first compound 10 µM
[31] = second compound 10 µM, first compound 0.0316 µM
[32] = second compound 10 µM, first compound 0.1 µM
[33] = second compound 10 µM, first compound 0.316 µM
[34] = second compound 10 µM, first compound 1 µM
[35] = second compound 10 µM, first compound 3.16 µM
[36] = second compound 10 µM, first compound 10 µM
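Further: spheroids exposed to drugs for seven days before viability read.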
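Wherever viability, T/C is given: 100% = DMSO vehicle control wells.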

## CC(C)n1c(=O)n(C)c2cnc3cc(F)c(-c4ccc(OCCCN5CCCCC5)nc4)cc3c21 + COC1C(OC(N)=O)C(O)C(Oc2ccc3c(O)c(NC(=O)c4ccc(O)c(CC=C(C)C)c4)c(=O)oc3c2C)OC1(C)C
Second compound 0.0316 µM
  pIC50: < 5.00
Second compound 0.1 µM
  pIC50: < 5.00
Second compound 0.316 µM
  pIC50: < 5.00
Second compound 1 µM
  pIC50: < 5.00
Second compound 3.16 µM
  pIC50: < 5.00
Second compound 10 µM
  pIC50: < 5.00
[1]
  viability, T/C: 124%
[2]
  viability, T/C: 124%
[3]
  viability, T/C: 108%
[4]
  viability, T/C: 95.4%
[5]
  viability, T/C: 138%
[6]
  viability, T/C: 133%
[7]
  viability, T/C: 123%
[8]
  viability, T/C: 109%
[9]
  viability, T/C: 79%
[10]
  viability, T/C: 135%
[11]
  viability, T/C: 139%
[12]
  viability, T/C: 92.8%
[13]
  viability, T/C: 98%
[14]
  viability, T/C: 105%
[15]
  viability, T/C: 118%
[16]
  viability, T/C: 119%
[17]
  viability, T/C: 108%
[18]
  viability, T/C: 85.2%
[19]
  viability, T/C: 81.3%
[20]
  viability, T/C: 117%
[21]
  viability, T/C: 99.3%
[22]
  viability, T/C: 113%
[23]
  viability, T/C: 104%
[24]
  viability, T/C: 120%
[25]
  viability, T/C: 95%
[26]
  viability, T/C: 115%
[27]
  viability, T/C: 89.6%
[28]
  viability, T/C: 117%
[29]
  viability, T/C: 106%
[30]
  viability, T/C: 90.3%
[31]
  viability, T/C: 94.4%
[32]
  viability, T/C: 135%
[33]
  viability, T/C: 122%
[34]
  viability, T/C: 160%
[35]
  viability, T/C: 133%
[36]
  viability, T/C: 101%

## CC1COCCN1c1cc(-c2ccnn2C)c2ccnc(-c3ccn[nH]3)c2n1 (stereo unspecified) + COC1C(OC(N)=O)C(O)C(Oc2ccc3c(O)c(NC(=O)c4ccc(O)c(CC=C(C)C)c4)c(=O)oc3c2C)OC1(C)C
Second compound 0.0316 µM
  pIC50: 7.14
Second compound 0.1 µM
  pIC50: 7.23
Second compound 0.316 µM
  pIC50: 6.87
Second compound 1 µM
  pIC50: 7.29
Second compound 3.16 µM
  pIC50: 7.03
Second compound 10 µM
  pIC50: 7.09
[1]
  viability, T/C: 73.1%
[2]
  viability, T/C: 41%
[3]
  viability, T/C: 20.7%
[4]
  viability, T/C: 13.7%
[5]
  viability, T/C: 13.8%
[6]
  viability, T/C: 16.3%
[7]
  viability, T/C: 66.6%
[8]
  viability, T/C: 36%
[9]
  viability, T/C: 20.7%
[10]
  viability, T/C: 14.3%
[11]
  viability, T/C: 16.4%
[12]
  viability, T/C: 19.7%
[13]
  viability, T/C: 73.1%
[14]
  viability, T/C: 61%
[15]
  viability, T/C: 19.9%
[16]
  viability, T/C: 15%
[17]
  viability, T/C: 18%
[18]
  viability, T/C: 21.3%
[19]
  viability, T/C: 59.7%
[20]
  viability, T/C: 36.5%
[21]
  viability, T/C: 18.8%
[22]
  viability, T/C: 14.9%
[23]
  viability, T/C: 14.8%
[24]
  viability, T/C: 20.3%
[25]
  viability, T/C: 78.9%
[26]
  viability, T/C: 48%
[27]
  viability, T/C: 19.4%
[28]
  viability, T/C: 15%
[29]
  viability, T/C: 18.9%
[30]
  viability, T/C: 16.1%
[31]
  viability, T/C: 74.9%
[32]
  viability, T/C: 44.1%
[33]
  viability, T/C: 24.4%
[34]
  viability, T/C: 14.4%
[35]
  viability, T/C: 14.7%
[36]
  viability, T/C: 20.7%

## CC1COCCN1c1cc(C2(S(C)(=N)=O)CC2)nc(-c2ccnc3[nH]ccc23)n1 (stereo unspecified) + COC1C(OC(N)=O)C(O)C(Oc2ccc3c(O)c(NC(=O)c4ccc(O)c(CC=C(C)C)c4)c(=O)oc3c2C)OC1(C)C
Second compound 0.0316 µM
  pIC50: 5.56
Second compound 0.1 µM
  pIC50: 5.67
Second compound 0.316 µM
  pIC50: 5.65
Second compound 1 µM
  pIC50: 5.41
Second compound 3.16 µM
  pIC50: 5.61
Second compound 10 µM
  pIC50: 5.67
[1]
  viability, T/C: 111%
[2]
  viability, T/C: 85.8%
[3]
  viability, T/C: 85.7%
[4]
  viability, T/C: 59.5%
[5]
  viability, T/C: 58.6%
[6]
  viability, T/C: 23.1%
[7]
  viability, T/C: 122%
[8]
  viability, T/C: 102%
[9]
  viability, T/C: 82.3%
[10]
  viability, T/C: 67.8%
[11]
  viability, T/C: 43.1%
[12]
  viability, T/C: 17.7%
[13]
  viability, T/C: 104%
[14]
  viability, T/C: 69%
[15]
  viability, T/C: 81.9%
[16]
  viability, T/C: 73%
[17]
  viability, T/C: 38.4%
[18]
  viability, T/C: 17.3%
[19]
  viability, T/C: 96.1%
[20]
  viability, T/C: 80.3%
[21]
  viability, T/C: 84.8%
[22]
  viability, T/C: 64.8%
[23]
  viability, T/C: 65.8%
[24]
  viability, T/C: 14.9%
[25]
  viability, T/C: 86.2%
[26]
  viability, T/C: 87.8%
[27]
  viability, T/C: 90.2%
[28]
  viability, T/C: 68.4%
[29]
  viability, T/C: 45.1%
[30]
  viability, T/C: 16.3%
[31]
  viability, T/C: 105%
[32]
  viability, T/C: 82.5%
[33]
  viability, T/C: 95.2%
[34]
  viability, T/C: 58.1%
[35]
  viability, T/C: 44.3%
[36]
  viability, T/C: 17.3%
